Series [1] concerns MM.1S, MM.1R, Jurkat and HS-Sultan cells. Description: Isobologram analysis of the interaction with Bortezomib. It is filed as cell-based. The protocol:
The MTT cell proliferation assay was used to study the cytotoxic properties of the compounds. The assay was performed according to the method described by Roche Molecular Biochemicals with minor modifications. The assay is based on the cleavage of the tetrazolium salt, MTT, in the presence of an electron-coupling reagent. The water-insoluble formazan salt produced must be solubilized in an additional step. Cells, grown in a 96-well tissue culture plate, are incubated with the MTT solution for approximately 4 hours. After this incubation period, a water-insoluble formazan dye is formed. After solubilization, the formazan dye is quantitated using a scanning multi-well spectrophotometer (ELISA reader). […] The cells were seeded at 1.5×10^4 cells in each well of 96-well plate in 200 μL of fresh culture medium and were allowed to attach for overnight. The stock solutions of the compounds were diluted in cell culture medium to obtain eight concentrations of each drug, ranging from 1 nM to 20 μM. After 72 h of treatment the medium was aspirated and the cells were washed once with sterile 1×PBS. […]
Tumor cells were assayed for viability in the absence or presence of drug/control treatments, and drug combination dose response studies were analyzed graphically by correlating the fraction of surviving cells with drug concentrations for each drug.r

For another series, the system named is normal cells. As to the kind of experiment: Cytotoxicity assay (MTS), normal cells. It counts as cell-based. The following applies: 72 hours exposure.
A further series concerns HCT-116 xenografts. As to the kind of experiment: HCT-116 xenograft growth and tolerability. It is filed as in vivo. Here is the method:
FIG. 5 presents activity data for Example 1 (KPT-127) administered at 150 mg/kg QD×7. […] HCT-116 xenografts were grown to ˜150 mm^3 and low dose KPT-0127 administered. On day 9, when the tumors were ˜350 mm^3, KPT-127 dose was escalated to 150 mg/kg sc daily. Irinotecan was used as a control.

For series [2], the system named is panel of ~570 solid and hematologic cancer cell lines. Description: Cytotoxicity assay (CellTiter 96 AQueous One Solution, MTS) in cancer cell line panel. It counts as cell-based. The following applies: 72 hours exposure, IC50 determined by MTS assay. Here is the method:
Cytotoxicity Assay (CellTiter 96® AQueous One Solution Cell Proliferation Assay) Cells were seeded into 96-well plates and compounds at the indicated concentrations were added to the cells after overnight incubation. Seventy two hrs later the proliferation assay was done in the following way: Twenty microliters of CellTiter 96® AQueous One Solution Reagent was added into each well. After 1 hour at 37° C. in a humidified, 5% CO2 atmosphere, the absorbance at 490 nm was recorded using an ELISA plate reader. Test compound was assayed in numerous cancer cell lines using the above assay protocol. Results are depicted in FIG. 3.
A general note: Formazan colour is commonly taken as a measure of viable cells.

A further series has as its system MM1.S xenografts. As to the kind of experiment: MM1.S xenograft growth. It is filed as in vivo. Here is the method:
FIG. 4 presents activity data for Example 1 (KPT-0127) administered at 150 mg/kg QD×5. […] (A) MM1.S cells were grown as xenografts to 130 mm^3 (small) or (B) 1350 mm^3 (large) sizes and were treated with KPT-0127 SC or dexamethasone IP daily×5 and growth was assessed. Treatment of large xenografts is ongoing (data shown after 5 doses of KPT-0127).

In series [3] the test system is Human myeloma cell lines (H929). As to the kind of experiment: Combination study with doxorubicin, apoptosis by anti-caspase-3 assay. It counts as cell-based. The following applies: H929 cells, compound 16 hrs then doxorubicin 2 umol/L for 4 h. The protocol: Combinations studies with doxorubicin. Human myeloma cell lines (H929) grown at 2×10^6 cells/mL (high density) were incubated with and without Example 1 for 16 h followed by doxorubicin (2 umol/L; Sigma) for 4 h and assayed for apoptosis by anti-caspase-3 assay (BD Pharmingen).

The target of the next series is T1, Crm1 (Homo sapiens, UniProt O14980).
T1 construct: endogenous in cells; host or cells: U2OS-RevGFP cells
T1 sequence (O14980 whole entry): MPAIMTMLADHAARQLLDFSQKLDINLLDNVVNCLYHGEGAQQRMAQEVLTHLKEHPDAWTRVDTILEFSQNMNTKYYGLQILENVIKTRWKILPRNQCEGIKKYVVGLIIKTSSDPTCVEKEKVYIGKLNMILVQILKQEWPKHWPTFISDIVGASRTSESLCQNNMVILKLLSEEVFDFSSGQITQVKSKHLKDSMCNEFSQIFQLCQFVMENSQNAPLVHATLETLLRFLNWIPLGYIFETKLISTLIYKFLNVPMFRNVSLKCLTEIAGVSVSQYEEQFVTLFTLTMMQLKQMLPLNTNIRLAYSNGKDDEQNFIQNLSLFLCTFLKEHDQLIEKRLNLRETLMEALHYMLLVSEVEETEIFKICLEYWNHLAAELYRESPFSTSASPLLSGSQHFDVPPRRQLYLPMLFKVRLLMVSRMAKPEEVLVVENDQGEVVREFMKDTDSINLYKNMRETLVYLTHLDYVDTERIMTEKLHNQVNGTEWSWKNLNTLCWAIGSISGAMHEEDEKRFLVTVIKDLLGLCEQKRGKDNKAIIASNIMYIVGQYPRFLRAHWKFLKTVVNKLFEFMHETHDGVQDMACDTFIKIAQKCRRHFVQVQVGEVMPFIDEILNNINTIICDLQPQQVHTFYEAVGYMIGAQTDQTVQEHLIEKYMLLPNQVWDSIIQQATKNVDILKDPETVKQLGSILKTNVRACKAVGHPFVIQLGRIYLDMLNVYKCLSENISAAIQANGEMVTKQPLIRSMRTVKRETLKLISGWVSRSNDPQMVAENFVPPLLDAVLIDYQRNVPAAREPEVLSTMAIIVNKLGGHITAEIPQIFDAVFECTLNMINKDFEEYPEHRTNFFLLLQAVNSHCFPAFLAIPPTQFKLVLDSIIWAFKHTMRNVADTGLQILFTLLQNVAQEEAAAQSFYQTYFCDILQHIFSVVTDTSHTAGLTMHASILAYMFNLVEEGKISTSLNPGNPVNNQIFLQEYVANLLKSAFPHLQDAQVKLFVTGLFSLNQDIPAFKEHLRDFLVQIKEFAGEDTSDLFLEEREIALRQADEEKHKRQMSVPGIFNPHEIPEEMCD
As to the kind of experiment: Rev-GFP nuclear export inhibition assay (U2OS-RevGFP cells). It is filed as cell-based. The settings on record: ~1 hr incubation with compound, read-out: Rev Export (%)/[IC50] OR Cytotoxicity[EC50]. The protocol: The evaluation of the affinity of compounds for the Crm1 protein was determined in the RevGFP assay.
Experimental protocol: Rev is a protein from human immunodeficiency virus type 1 (HIV-1) and contains a nuclear export signal (NES) in its C-terminal domain and a nuclear localization signal (NLS) in its N-terminal domain. Nuclear export of Rev protein is dependent on the classical NES/Crm1 pathway (Neville et al, 1997). Nuclear accumulation of Rev can be observed in cells treated with specific inhibitors of Crm1, such as LMB (Kau et al, 2003). In this assay, U2OS-RevGFP cells are seeded onto clear-bottom, black, 384-well plates the day before the experiment. Compounds are serially diluted 1:2 starting from 40 μM in a separate 384-well plate in DMEM, and then transferred onto cells. Cells are incubated with compound for ˜1 hr before fixation with 3.7% formaldehyde and nuclei staining with Hoechst 33258. The amount of GFP in cell nuclei will be measured and compound IC50s determined (Kau et al, 2003).

For `CC(C)OC(=O)/C=C\n1cnc(-c2cccc(Cl)c2)n1` [Example 1, (Z)-3-[3-(3-Chloro-phenyl)-[1,2,4]-triazol-1-yl]-acrylic acid isopropyl ester], in series [1], the “interaction with Bortezomib (isobologram analysis)” value is “synergistic interactions with Bortezomib”. Also, in the series with normal cells, the “effect on normal cells” value is on record as “minimal effect on normal cells”. In addition, the “growth of moderate HCT-116 xenografts” value in the series on HCT-116 xenografts (150 mg/kg QD×7, low dose from ~150 mm^3, escalated on day 9 (~350 mm^3) to 150 mg/kg sc daily) was “inhibits moderate HCT-116 xenografts”. For the same molecule, the tolerability result with HCT-116 xenografts (150 mg/kg sc daily) was “well tolerated”. Also, in the series with HCT-116 xenografts (HCT-116 xenograft study), the “clinical chemistries and CBCs” value is given as “not significantly affected”. Besides, in series [2], the “cytotoxicity in hematologic and solid tumor cell lines” value was “potent and selective cytotoxicity”. Besides, the “growth of small MM1.S xenografts” value in the series with MM1.S xenografts (150 mg/kg QD×5 SC, xenografts grown to 130 mm^3) is given as “inhibits growth”. In addition, in the series with MM1.S xenografts (150 mg/kg SC, xenografts 1300 mm^3, data after 5 doses, treatment ongoing), the “growth of large MM1.S xenografts” value is “inhibits growth”. Also, the “sensitization to Topo II inhibitor Doxorubicin (apoptosis)” value in series [3] is “sensitizes non-Cyclin resistant Myeloma H929 cells to Topo II inhibitor Doxorubicin”.

Turning to `CC(C)OC(=O)/C=C\n1cnc(-c2cc(C(F)(F)F)cc(S(C)(=O)=O)c2)n1` [Example 67, (Z)-isopropyl 3-(3-(3-(methylsulfonyl)-5-(trifluoromethyl)phenyl)-1H-1,2,4-triazol-1-yl)acrylate], the IC50 on Crm1 was < 1 µM.

As for `CCOC(=O)/C=C\n1cnc(-c2cc(F)cc(Cl)c2)n1` [Example 82, 3-[3-(3-Chloro-5-fluoro-phenyl)-[1,2,4]triazol-1-yl]-acrylic acid ethyl ester], at Crm1, the IC50 is 1 to 10 µM.

Take `CC(C)N(C)C(=O)/C=C\c1n[nH]c(-c2cccc(Cl)c2)n1` [Example 95, 3-[5-(3-Chloro-phenyl)-1H-[1,2,4]triazol-3-yl]-N-isopropyl-N-methyl-acrylamide]: the IC50 on Crm1 is > 10 µM.
